Test results reported in US7820400B2, “Tumor-associated marker” (The Trustees of Columbia University in the City of New York, priority 2000, dated 2010).

Tested on: SK-BR-3 cells
Test: Release of TIP-2 antigen into culture media of Taxol-treated cells (Western blot)
Assay type: cell-based, human
Conditions: SK-BR-3 cells treated with increasing amounts of Taxol (5.5-88 uM)
Description: The release of TIP-2 antigen into cell culture media of SK-BR-3 cells treated with different concentration of Taxol. The lines are as follows (from left to right): 1) SK-BR-3 cell lysate prepared form approximately 70,000 cells; 2) empty lane; 3) Taxol, 88 uM added to 35 mm tissue plate containing approximately 250,000 cells; 4) same with Taxol, 44 uM; 5) same with Taxol, 22 uM; 7) same with Taxol, 11 uM; 8) same with Taxol, 5.5 uM; 9) cell lysate prepared from cells which were not treated with Taxol; 10) lysate prepared from the residual dead cells' remnants after treatment with Taxol, 88 uM.
Using a specific fusion partner cell line MFP-2 were developed two fully human antibodies to breast and prostate cancer-associated antigens. Both antigens were reactive with a 42 kDa-protein target, which was identified through SEREX technology as Ga-interacting protein, C terminus or Tax interacting protein, clone 2. This protein is specifically overexpressed in three human breast cancer cell lines, SK-BR-3, MCF-7 and ZR-1-75, has very low if any expression level in human prostate cancer lines, PC-3, LNCaP and DU-145 and no expression in two human fibroblast cell lines. […] Normal breast epithelia were negative for staining with anti-TIP-2 antibodies as was benign prostate hyperplasia (BPH) tissue. […]

CC(=O)O[C@H]1C(=O)[C@@]2(C)[C@H]([C@H](OC(=O)c3ccccc3)[C@]3(O)C[C@H](OC(=O)[C@H](O)[C@@H](NC(=O)c4ccccc4)c4ccccc4)C(C)=C1C3(C)C)[C@]1(OC(C)=O)CO[C@@H]1C[C@@H]2O [Taxol]
release of TIP-2 antigen into the media: TIP-2 antigen released into the media in a dose dependent manner
